Data set [1] can be described thus: Quality of castor oil containing emulsions with different steroids (pH, volume distribution, span, storage stability). It is filed as physicochemical. To be noted: for D(4:3) / pH / Span: emulsion of the steroid; for pH: heat sterilized; for Span: Malvern Mastersizer; for Storage 5 and 40°C: storage stability of emulsion. On the procedure: In order to determinate the quality of the castor oil containing emulsions with different steroids, the following compositions were prepared:
The steroids were weighed in a 50 ml glass beaker. The castor oil (CO) or a mixture of castor oil and soybeans oil (CO+SBO) in a proportion of 70 : 30 was added to the beaker which was heated and the steroids were dissolved. The phospholipids were added to the oil phase and the agitation continued for another five minutes. This mixture was added to a heated aqueous phase containing water and glycerol and agitated for five minutes. The mixture was thereafter homogenized to an emulsion in a high pressure lab scale homogeniser at the technically highest possible pressure. The resultant emulsions were dispersed and sealed 20 ml glass vials which were heat sterilized. The emulsions were analysed with respect to the appearance, the shaking stability, pH and volume distribution. The span was analysed with a Malvern Mastersizer. The appearance of the droplets larger than 1µm and the average area on a relevant picture and the presence of precipitate were investigated with a microscope. The storage stability at 5 and 40°C was also studied.

Data set [2] can be described thus: Solubility of steroid and stability of the oil-in-water emulsions of Example 2. To be noted: in Formulation 1 compared with Formulation 3. The class given is physicochemical. Here is the method:
For the biological experimentation oil-in-water emulsions were prepared from the following components:
pH was adjusted to 8.5 by NaOH and water for injection was added to 1 ml in all formulations.
Formulations 1 and 2 are emulsions according to the present invention, whereas Formulation 3 is a state of the art emulsion according to the European patent EP 233 849. The medium chain triglycerides in Formulation 2 are derived from coconut oil and will contain a fraction of triglycerides with fatty add residues having 6 to 12 carbon atoms. According to the present invention, the eltanolone was first mixed with castor oil or a mixture of castor oil and soybean oil and/or MCT. This leads to a substantial dissolution of the eltanolone. An emulsion was then prepared from the resulting oil-eltanolone mixture together with the additional indicated components. The resulting emulsions were stable and had average particle sizes of about 0.2 to 0.3 µ and could be sterilized by autoclaving without destabilisation. It is notable that in Formulations 1 and 2 according to the present invention half the amount of lipids is sufficient for obtaining a substantial dissolution of eltanolone when compared to Formulation 3. The solubility of eltanolone is for example about 5 times higher in Formulation 1 than in Formulation 3.

Setting [3] is: vehicle CO+SBO (castor oil and soybean oil 70 : 30).

These results are taken from patent EP0659072B1, “PHAR[…] […] STEROIDS” (Pharmacia AB, priority 1993, dated 1995).

Where only a bound is given, the exact number is not on record here.

Regarding `C[C@]12CC[C@@H](O)C[C@H]1CC[C@@H]1[C@@H]2CC[C@]2(C)[C@@H](C(=O)CO)CC[C@@H]12` [Tetrahydrodeoxycorticosterone, 5β-pregnan-3α,21-diol-20-one], in data set [1] (vehicle CO (castor oil)), the “D(4:3)” value is listed as 0.86 µm; the pH turned out to be 9.0; the Span came out at 1.80; the “Storage 5 and 40°C” value is over 1 month months. Further, in data set [1] (vehicle CO+SBO (70 : 30)), the “D(4:3)” value is listed as 0.58 µm; the Span is given as 1.52; the “Storage 5 and 40°C” value is listed as over 1 month months. This compound also registered a pH in data set [1] (setting [3]) of 9.1.

Turning to `C[C@]12C=CC(=O)C=C1CC[C@@H]1[C@@H]2[C@@H](O)C[C@@]2(C)[C@H]1CC[C@]2(O)C(=O)CO` [Prednisolone, 11β-11, 17, 21-trihydroxypregna-1,4-diene-3,20-dione, reference compound], in data set [1] (vehicle CO (castor oil)), the “D(4:3)” value came out at 0.81 µm; the pH was found to be 8.9; the Span is reported as 1.28; the “Storage 5 and 40°C” value was over 2 months. In data set [1] (vehicle CO+SBO (70 : 30)), the “D(4:3)” value was 0.70 µm; the Span is recorded as 1.26; the “Storage 5 and 40°C” value is listed as over 2 months. In addition, in data set [1] (setting [3]), the pH was 8.9.

For `C[C@]12CC[C@@H](O)C[C@@H]1CC[C@@H]1[C@@H]2CC[C@]2(C)C(=O)CC[C@@H]12` [Androsterone, 5α-androstan-3α-ol-17-one], in data set [1] (vehicle CO (castor oil)), the “D(4:3)” value was 0.83 µm; the pH is 8.9; the Span is recorded as 1.79; the “Storage 5 and 40°C” value was over 1 month months. Besides, in data set [1] (vehicle CO+SBO (70 : 30)), the “D(4:3)” value is on record as 0.51 µm; the Span is given as 1.50; the “Storage 5 and 40°C” value is recorded as over 1 month months. In data set [1] (setting [3]), this compound registered a pH of 9.2.

On to `CC(=O)[C@H]1CC[C@H]2[C@@H]3CC[C@@H]4C[C@@H](O)CC[C@]4(C)[C@H]3CC[C@]12C` [Epipreganolone, 5β-pregnan-3β-ol-20-one], for which, in data set [1] (vehicle CO (castor oil)), the “D(4:3)” value was determined as 0.75 µm; the pH is 8.8; the Span came out at 1.81; the “Storage 5 and 40°C” value was over 4 months. Further, in data set [1] (vehicle CO+SBO (70 : 30)), the “D(4:3)” value was found to be 0.75 µm; the Span is recorded as 1.71; the “Storage 5 and 40°C” value is over 4 months. Besides, the pH in data set [1] (setting [3]) turned out to be 9.0.

Consider `CC(=O)[C@H]1CC[C@H]2[C@@H]3CC[C@H]4C[C@H](O)CC[C@]4(C)[C@H]3CC[C@]12C` [Allo pregnanolone, 5α-pregnan-3β-ol-20-one], for which, in data set [1] (vehicle CO (castor oil)), the “D(4:3)” value was 0.69 µm; the pH turned out to be 8.8; the Span was 1.70; the “Storage 5 and 40°C” value is over 3 months. In addition, in data set [1] (vehicle CO+SBO (70 : 30)), the “D(4:3)” value came to 0.53 µm; the Span is listed as 1.58; the “Storage 5 and 40°C” value is reported as over 3 months. Besides, in data set [1] (setting [3]), the pH is on record as 9.0.

Consider `C[C@]12CCC(=O)C=C1CC[C@@H]1[C@@H]2[C@@H](O)C[C@@]2(C)[C@H]1CC[C@]2(O)C(=O)CO` [Hydrocortisone, 11β,17α,21-trihydroxypregna-4-ene-3,20-dione, reference compound], for which, in data set [1] (vehicle CO (castor oil)), the “D(4:3)” value was 0.76 µm, the pH is on record as 8.7 and the Span is 1.43. Also, in data set [1] (vehicle CO+SBO (70 : 30)), the “D(4:3)” value worked out at 0.56 µm and the Span came to 1.51. The same compound yielded a pH in data set [1] (setting [3]) of 8.8.

In the case of `CC(=O)[C@H]1CC[C@H]2[C@@H]3CC=C4C[C@@H](OS(=O)(=O)O)CC[C@]4(C)[C@H]3CC[C@]12C` [Pregnenolone sulphate, 5-pregnen-3β-ol-20-one-sulphate], in data set [1] (vehicle CO (castor oil)), the “D(4:3)” value came out at 0.97 µm; the pH was determined as 8.8; the Span is given as 1.76; the “Storage 5 and 40°C” value was over 1 month months. Also, in data set [1] (vehicle CO+SBO (70 : 30)), the “D(4:3)” value turned out to be 0.50 µm; the Span is 1.56; the “Storage 5 and 40°C” value is listed as over 1 month months. The compound also showed a pH in data set [1] (setting [3]) of 8.8.

For `CC(=O)[C@H]1CC[C@H]2[C@@H]3CC[C@@H]4C[C@H](O)CC[C@]4(C)[C@H]3CC[C@]12C` [eltanolone, 5β-pregnan-3α-ol-20-one], the solubility of eltanolone entry in data set [2] is “about 5 times higher”.
